Laboratory results published in article PMC5004293, “Characterization of FRM-36143 as a new γ-secretase modulator for the potential treatment of familial Alzheimer’s disease” (Alzheimer's Research & Therapy, 2016).

Key:
[1] = Compound exposure in mice (LC-MS/MS, brain tissue binding); assay type: in vivo; settings: mouse
Method: (§1) Mice and rats were maintained on 12/12 h light/dark cycle with food available ad libitum. Drug treatment was prepared in a vehicle of 1 % carboxymethylcellulose (CMC):Tween80 (99.5:0.5). Twelve-week-old wild-type male mice (129S6, Taconic Biosciences, Hudson, NY, USA) or rats (Wistar, Charles River Laboratories) were administered compound p.o. without prior fasting and euthanized by CO2 asphyxiation at specified times post-dosing. After extraction of the brain, the olfactory bulb and hindbrain were removed and the cerebral hemispheres separated (mice) or cut in 4 pieces (rats). The cerebellum was removed for bioanalysis of the compound. CSF was collected from the cisterna magna and blood from a cardiac puncture.
Cerebellums were homogenized in a Mini-BeadBeater (Biospec Products, Inc., Bartlesville, OK, USA). Brain samples, plasma, and CSF were prepared for LC-MS/MS by precipitating proteins with acetonitrile and vacuum filtration in the presence of an internal standard. Standards were prepared in the corresponding matrix. FRM-36143 was resolved by HPLC (Shimadzu) using a reverse-phase C18 Kinetex column (30X2.1 mM; Phenomenex, Torrance, CA, USA). Following separation, the column effluent was introduced into a triple quadrupole mass spectrometer (API 5500, Applied Biosystems), optimized for detection of FRM-36143 and using multiple reaction monitoring with mass transition of 390.3 > 215.2.
The unbound fraction in brain homogenate (fu,b) was determined in triplicate in the Rapid Equilibrium Dialysis device (8000 Da molecular weight cut-off membrane, Thermo Scientific/Pierce Biotechnology, Rockford, IL, USA). Briefly, FRM-36143 stock solution (0.1 mg/mL in acetonitrile) was added to fresh mouse brain homogenate (1:4 dilution with PBS) to achieve a final concentration of 1 μg/mL. Aliquots of the brain homogenate (300 μL) were loaded into the donor side, and 500 μL of PBS into the receiver side of the dialyzer. […]

γ-secretase [2] = assay: Population PK/PD modeling of mouse brain Aβ42 reduction; assay type: in vivo; settings: population PK/PD model, mice
Method: as §1
A population pharmacokinetic/pharmacodynamic (PK/PD) analysis was performed to obtain maximal efficacy (Emax) and concentration leading to 50 % of Emax (EC50) using the Phoenix® NLME™ (NonLinear Mixed Effect) program (version 6.3, Certara USA, Inc., St. Louis, MO). The goodness of fit was assessed based on visual inspection of curve fitting, Akaike’s information criterion (AIC), and precision of parameter estimation.

[3] = test system: γ-secretase with FAD PS1 mutations (H163R, M233L, R278I); assay: HEK cells overexpressing APPsw with FAD PS1 mutations; assay type: cell-based, human
Method: (§2) Aβ peptide levels were quantified by sandwich ELISA using anti-Aβ38, anti-Aβ40, anti-Aβ42, (BioLegend, Dedham, MA, USA) or anti-Aβ37 for the capture and 4G8-horseradish peroxidase (HRP; BioLegend) for detection. When measuring Aβ37 and Aβ38, 4G8-HRP was added to the sample for overnight incubation, whereas it was added after the overnight incubation for 1 h for Aβ40 and Aβ42 measurements.
(§3) For cell-based assays, freshly collected samples of cultured cell supernatant were added to the plates and incubated at 4 °C for about 24 h. Detection was performed using SureBlue 3,3’,5,5’-tetramethylbenzidine (TMB) peroxidase substrate (KPL, Inc., Gaithersburg, MD, USA) and the plates read on a SpectraMax M5e microplate reader (Molecular Devices, Inc., Sunnyvale, CA, USA). GSM-treated samples were normalized to samples treated with DMSO alone (100 %) and 5 μM GSI, DAPT (0 %; Sigma-Aldrich). EC50 values were calculated from values reported as percentage of DMSO using nonlinear regression, based on a sigmoidal dose–response (variable slope) model.
(§4) The extractions were performed according to the methods described by Okochi et al.. Briefly, human embryonic kidney (HEK) cells stably expressing APPsw and PS1 derivatives were cultured to confluence in 10-cm dishes and the media replaced on the day of the experiment. Cells were treated with FRM-36143 in the presence of proteasome inhibitors (1 mM lactacystin, 100 nM MG262, and 1 mM epoxomicin) for 1 h. Conditioned media were collected and cells were washed with ice-cold PBS and then immediately boiled for 2 min. A monitoring peptide (IVTL) and protease inhibitors were then added to the boiled samples, which were sonicated for 5 s three times and centrifuged at 100,000 × g for 1 h. The resultant supernatants were precipitated with TCA on ice for 15 min, centrifuged at 100,000 × g for 1 h, and filtered before being subjected to LC-MS/MS analysis to measure the tri-, tetra-, and pentapeptides as described elsewhere.

γ-secretase [4] = biological target: T1, γ-secretase (Homo sapiens, UniProt P49768); assay: Aβ in media and intracellular small peptides of HEK cells expressing APPsw and WT presenilin; assay type: cell-based; settings: HEK APPsw, 1 μM
T1 construct: expressed in transfected cells; host or cells: HEK cells stably expressing APPsw and WT PS1
Method: as §2, §3
as §4, with “Cells were treated with FRM-36143 in the presence of proteasome inhibitors (1 mM lactacystin, 100 nM MG262, and 1 mM epoxomicin) for 1 h.” left out

COc1nc(C2=NOC[C@H](c3cc4ccccc4o3)N2)ccc1-n1cnc(C)c1 [FRM-36143, (R)-5-(benzofuran-2-yl)-3-(6-methoxy-5-(4-methyl-1H-imidazol-1-yl)pyridin-2-yl)-5,6-dihydro-4H-1,2,4-oxadiazine]
concentration at 6 h ([1]; male, 129S6, brain (unbound), 30 mg/kg oral, 6 h): 427 nM
Unbound brain Cmax ([1]; 10 mg/kg oral): 235 nM
Exposure or efficacy at higher dose ([1]; 90 mg/kg vs 30 mg/kg, data not shown): did not achieve significantly higher exposure or efficacy
Maximal brain Aβ42 reduction (Emax) (γ-secretase [2]; 30 mg/kg data): 51%
Emax for effect on brain Aβ42 (γ-secretase [2]; 30 mg/kg data only, CV: 15 %): 0.51
EC50 (γ-secretase [2]; 30 mg/kg, unbound plasma concentration, 2.5–97.5 % CI 4.6–151 nM, read-out: In vivo EC50 for Aβ42): 0.078 µM
Reversal of the effect of FAD PS1 mutations on APP processing ([3]; HEK APPsw with PS1 H163R, M233L or R278I, Aβ42:Aβ40, Aβ38:Aβ42, VVIA/VVIAT): able to reverse the effect of the mutations studied
Aβ38:Aβ42 ratio (fourth cleavage step) ([3]; PS1 R278I mutant): significant increase
Aβ42:Aβ40 ratio ([3]; PS1 R278I mutant): remains unchanged
Aβ42 concentration in the media (γ-secretase [4]; 2 h, DMSO 154 ± 2): 105 ± 2 pM
Aβ38 concentration in the media (γ-secretase [4]; 2 h, DMSO 750 ± 62): 1548 ± 39 pM
Aβ40 concentration in the media (γ-secretase [4]; 2 h, DMSO 4021 ± 132): 3477 ± 120 pM
Aβtotal concentration in the media (Aβ38 + Aβ40 + Aβ42) (γ-secretase [4]; 2 h, DMSO 4925 ± 185): 5130 ± 92 pM
Intracellular production of small peptides VVIA and VVIAT (fourth cleavage step) (γ-secretase [4]; LC-MS/MS): increases the production of VVIA and VVIAT
